This is an account of results in US11555032B2, “Isoxazole derivatives as FXR agonists and methods of use thereof” (Enanta Pharmaceuticals, Inc., priority 2019, dated 2023).

For orientation: EC50 means the concentration at which the effect is half-maximal. The low end stands for an effect from little substance, the high end for a need for much substance.

In this experiment the target is T1, human FXR (NR1H4) (Homo sapiens, UniProt Q96RI1).
T1 construct: host or cells: CHO (Chinese hamster ovary) reporter cells
T1 sequence (Q96RI1 1-486): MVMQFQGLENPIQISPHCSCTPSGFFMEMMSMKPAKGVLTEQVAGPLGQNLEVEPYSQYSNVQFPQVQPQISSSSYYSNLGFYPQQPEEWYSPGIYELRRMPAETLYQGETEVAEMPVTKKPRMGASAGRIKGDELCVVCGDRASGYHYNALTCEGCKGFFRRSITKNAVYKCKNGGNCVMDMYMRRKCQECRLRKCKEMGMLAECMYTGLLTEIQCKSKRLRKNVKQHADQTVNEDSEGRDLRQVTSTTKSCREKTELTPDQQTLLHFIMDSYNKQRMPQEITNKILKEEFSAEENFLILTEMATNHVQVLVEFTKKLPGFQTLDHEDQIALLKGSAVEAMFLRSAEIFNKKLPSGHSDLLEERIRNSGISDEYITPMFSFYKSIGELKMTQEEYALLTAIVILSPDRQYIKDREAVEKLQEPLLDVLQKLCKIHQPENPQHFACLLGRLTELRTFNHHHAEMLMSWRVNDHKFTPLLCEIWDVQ
Kind of experiment: Human FXR (NRIH4) Assay, luciferase reporter. The class given is cell-based. The conditions noted are these: CHO reporter cells expressing human NR1H4, luciferase, 22 hours incubation.

`O=C(O)c1cc(OC(F)(F)F)c2nc(NC3C4CCC3CC(OCc3c(-c5ccccc5OC(F)(F)F)noc3C3CC3)C4)sc2c1` (stereo not drawn) [Example 37]: the EC50 was under 25 nM.

As to `N#Cc1cc(C2CC2)c2nc(NC3C4CCC3CC(OCc3c(-c5ccccc5OC(F)(F)F)noc3C3CC3)C4)sc2c1` (stereo not drawn) [Example 38], the half-maximal effective concentration (EC50) fell in the range of 25 to 500 nM.

Regarding `O=C(O)c1cc(F)cc2nc(NC3C4CCC3CC(OCc3c(-c5ccccc5OC(F)(F)F)noc3C3CC3)C4)cnc12` (stereo not drawn) [Example 39], the concentration for a half-maximal effect (EC50) was under 25 nM.

In turn, `N#Cc1cc(F)cc2nc(NC3C4CCC3CC(OCc3c(-c5ccccc5OC(F)(F)F)noc3C3CC3)C4)cnc12` (stereo not drawn) [Example 40] gave a concentration giving a half-maximal response (EC50) of under 25 nM.

For the compound `O=C(O)c1ccc2nc(NC3C4CCC3CC(OCc3c(-c5ccccc5OC(F)(F)F)noc3C3CC3)C4)cnc2c1` (stereo not drawn) [Example 41], the EC50 is under 25 nM.

On to `O=C(O)c1cc(F)c2nc(S(=O)(=O)C3C4CCC3CC(OCc3c(-c5ccccc5OC(F)(F)F)noc3C3CC3)C4)sc2c1` (stereo not drawn) [Example 45], for which the concentration giving a half-maximal response (EC50) lay in the range of 25 to 500 nM.

The compound `FC(F)(F)Oc1ccccc1-c1noc(C2CC2)c1COC1CC2CCC(C1)C2Nc1cnc2c(-c3nnn[nH]3)cccc2n1` (stereo not drawn) [Example 46] came in with a 50% effective concentration (EC50) of under 25 nM.

Compound `N#Cc1cccc2ncc(NC3C4CCC3CC(OCc3c(-c5ccccc5OC(F)(F)F)noc3C3CC3)C4)nc12` (stereo not drawn) [Example 47] yielded an EC50 of 25 to 500 nM.

On to `N#Cc1cccc2nc(NC3C4CCC3CC(OCc3c(-c5ccccc5OC(F)(F)F)noc3C3CC3)C4)cnc12` (stereo not drawn) [Example 48], for which the EC50 was under 25 nM.
